# Data reported in patent US4038278A, “4-Aminopyrimidium derivatives and preparation thereof” (Eisai Co., Ltd., priority 1974, dated 1977).
# Assays:
# [1] = tested on: Stress Ulcer (Immersion); assay: Stress Ulcer (Immersion) at 23-25° C. for 20 hrs; type: in vivo, rat (Wistar strain); conditions: for Ulcer Index (mm): * P<0.05 for Compound C; for effect on stress ulcer in words: 300 mg/Kg (p.o.)
# Protocol: (§1) Using rats of Wistar strain as test animals weighing about 150 - 160 g., the anti-ulcer activities were measured in accordance with the conventional manner with respect to the following four (4) items.
# i. Stress Ulcer (Immersion) at 23° - 25° C. for 20 hrs.
# [2] = tested on: gastric secretion; assay: Effect on gastric secretion in 4hr. pylorus-ligated rats (intraduodenal); type: in vivo, rat (Wistar strain)
# Protocol: as §1
# ii. Effect on gastric secretion in 4hr. pylorus-ligated rats. (Intraduodenal administration)
# [3] = tested on: Shay Ulcer; assay: Effect on Shay Ulcer in rats (17hr. pylorus-ligated rats); type: in vivo, rat (Wistar strain); conditions: for Inhibitory % (ulcer index) / Ulcer Index (mm): 300 (mg/μg [sic]); for Inhibitory % (ulcer index) / Ulcer Index (mm) / Inhibitory % (titrable acidity) / Inhibitory % (volume) / Titrable Acidity to pH 7.0 / Vol(ml) 100g B.W.: 17hr pylorus-ligated; for Ulcer Index (mm): Compound A n=2, individual values (0),(84), Compound C n=6, * P<0.05; for Inhibitory % (titrable acidity) / Inhibitory % (volume) / Titrable Acidity to pH 7.0 / Vol(ml) 100g B.W.: dose not given in Table 7; for Vol(ml) 100g B.W.: Compound A n=2, individual values (1.11),(3.29); for inhibitory effect against the appearance of ulcer in words: Tables 6 and 7
# Protocol: as §1
# iii. Effect on Shay Ulcer in rats. (Method by 17hr. pylorusligated rats)
# [4] = pH of the test compound; type: physicochemical; conditions: footnote of Table 5
# [5] = tested on: stomach mucosa; assay: Degree of gastric trouble (visible observation of stomach mucosa); type: in vivo, rat (Wistar strain)
# From the text: 2. Degree of gastric trouble
# The rats used in above test of anti-edematic effects were slaughtered, and their stomaches were visibly observed in accordance with the under-mentioned bases. Measurement values were decided by summing up the respective data of 4 tests of each group.
# Visible observation of the stomach mucosa
# No abnormality is recognized
# Slight edema, congestion or slight erosion
# Scattered or limitted erosion and spotted
# Heavy erosion, linear bleeding or enlarged
# [6] = tested on: Carrageenin edema of the hind paw of the rat; assay: Anti-edematic effect, Carrageenin paw edema method, oral, in rats; type: in vivo, rat (Wistar strain)
# Protocol: Test animal: For the respective compounds, four male rats of the Wistar strain weighing approximately 150g were used. The test animals were made to fast for approximately 16 hours.
# The anti-edematic test is carried out by determining the increase of edema due to the injection of […], in accordance with the paw edema method. [see Winter. C. A. et al; Proc. Soc. exp.
# The test compounds were respectively suspended in five percent of aqueous solution of gum Arabic, and the suspensions were orally administered to the rats one hour before the injection of the Carrageenin. Activities were determined by measuring the volume of the hind paw of the rat three hours after the administration of the Carrageenin.
# [7] = tested on: acetic acid Writhing syndrome; assay: Anti-acetic acid Writhing test, oral, in mice; type: in vivo, mouse (dd strain)
# Protocol: Comparative tests for anti-acetic acid Writhing activity in mice were made to the Compound A of the present invention and 4-amino-pyrimidine-N^1 -phenacylbromide (hereinafter referred to as Compound C), using Aspirin as a control compound. The test compounds were respectively suspended in an of aqueous solution of containing five percent of gum Arabic. Eight male mice of dd strain weighing approximately 20 - 23g were used as the test animals. The mice were made to fast for about 19 hours.
# After 50 minutes or 170 minutes of administration of the test compounds, 0.1 ml of 0.7% acetic acid solution per 10 g. of the body weight of the test animal was injected intraperitoneally. Regarding the expansion of the hind paw of the mice induced during 15 minutes after the injection, a number of Writhing syndromes were encountered and recorded. Effects of the respective test compounds against the usual behavior of the mice were also observed. In the above test, 5% gum arabic solution per se was administered to the control animal.
# Various doses of the respective compounds were orally administered to eight mice. After 1 or 3 hours of the administration, a anti-acetic acid Writhing test was carried out.
# [8] = tested on: gastric secretion stimulated by carbachol; assay: Effect on gastric secretion stimulated by carbachol in acute gastric fistula rats; type: in vivo, rat (Wistar strain); conditions: FIG. 1
# Protocol: as §1
# iv. Effect on gastric secretion in acute gastric fistula rats.
# Comparative tests were carried out to measure the effects on gastric secretion stimulated by carbachol and the effects of Compounds A and C on eight rats of Wistar strain. The results are graphically shown in the accompanying FIG. 1.
# [9] = 300 mg/Kg p.o., ** P<0.01 for Compound A
# [10] = 150 (mg/μg [sic]) intraduodenal
# [11] = 300 (mg/μg [sic]) intraduodenal
# [12] = 3hr, 160 mg/Kg p.o., ** P<0.01 for Compound C
smiles,measurement,setting,value
"COc1ccc(C(=O)C[n+]2ccc(N)nc2)cc1 [Compound A, 4-aminopyrimidine N^1-(p-methoxyphenacyl)bromide]",Inhibitory % (ulcer index),[1]; 150 mg/Kg p.o.,28.1%
same,Ulcer Index (mm),[1]; 150 mg/Kg p.o.,37.1 ± 5.9 mm
same,effect on stress ulcer in words,[1],effective
same,Inhibitory % (ulcer index),[1]; 300 mg/Kg p.o.,70.3%
same,Ulcer Index (mm),[1]; [9],15.3 ± 6.1 mm
same,Inhibitory % (titrable acidity),[2]; [10],92.4%
same,Inhibitory % (volume),[2]; [10],73.3%
same,Titrable acidity to PH 7.0,[2]; [10],14.4 ± 4.2 μEq/100g B.W.
same,Vol/100 g B.W.(ml),[2]; [10],0.5 ± 0.06 ml/100 g B.W.
same,Inhibitory % (titrable acidity),[2]; [11],96.4%
same,Inhibitory % (volume),[2]; [11],64.4%
same,Titrable acidity to PH 7.0,[2]; [11],6.8 ± 3.4 μEq/100g B.W.
same,Vol/100 g B.W.(ml),[2]; [11],0.72 ± 0.24 ml/100 g B.W.
same,Inhibitory % (ulcer index),[3],23.4%
same,Ulcer Index (mm),[3],42 mm
same,Inhibitory % (titrable acidity),[3],45.9%
same,Inhibitory % (volume),[3],54.1%
same,Titrable Acidity to pH 7.0,[3],188.2 ± 72.0 μ Eq/100g B.W.
same,Vol(ml) 100g B.W.,[3],2.20 ml/100g B.W.
same,inhibitory effect against the appearance of ulcer in words,[3],outstanding inhibitory effects
same,pH of the test compound,[4],6.3
same,degree of gastric trouble in words,[5]; 100 mg/Kg p.o.,extremely less than that of the Control compound
same,Degree of gastric trouble,"[5]; 100 mg/kg p.o., sum of scores (0-3) of 4 rats",2
same,anti-edematic / anti-inflammatory effect in words,[6]; 100 mg/Kg p.o.,"equal to, or more than that of the Control compound"
same,Anti-edematic ratio (%),"[6]; 100 mg/kg p.o., rats, 3 hours after Carrageenin",50.0%
same,Comparison with Control Compound (anti-edematic ratio),"[6]; 100 mg/kg p.o., Control compound (Aspirin) = 100",140
same,No. of Writhing Syndrome (m±S.E.),"[7]; 1hr, 20 mg/Kg p.o.",41.4 ± 5.6
same,% of Protection,"[7]; 1hr, 40 mg/Kg p.o.",18%
same,No. of Writhing Syndrome (m±S.E.),"[7]; 1hr, 40 mg/Kg p.o.",33.1 ± 3.7
same,% of Protection,"[7]; 1hr, 80 mg/Kg p.o.",-15%
same,No. of Writhing Syndrome (m±S.E.),"[7]; 1hr, 80 mg/Kg p.o.",46.3 ± 3.6
same,No. of Writhing Syndrome (m±S.E.),"[7]; 1hr, 160 mg/Kg p.o.",29.4 ± 5.1
same,% of Protection,"[7]; 1hr, 160 mg/Kg p.o., * P<0.05",27%
same,No. of Writhing Syndrome (m±S.E.),"[7]; 1hr, 320 mg/Kg p.o.",17.1 ± 4.6
same,% of Protection,"[7]; 1hr, 320 mg/Kg p.o., ** P<0.01",58%
same,% of Protection,"[7]; 3hr, 20 mg/Kg p.o.",-13%
same,No. of Writhing Syndrome (m±S.E.),"[7]; 3hr, 20 mg/Kg p.o.",34.6 ± 5.4
same,% of Protection,"[7]; 3hr, 40 mg/Kg p.o.",43%
same,No. of Writhing Syndrome (m±S.E.),"[7]; 3hr, 40 mg/Kg p.o.",17.6 ± 4.8
same,% of Protection,"[7]; 3hr, 80 mg/Kg p.o.",25%
same,No. of Writhing Syndrome (m±S.E.),"[7]; 3hr, 80 mg/Kg p.o.",23.1 ± 6.6
same,No. of Writhing Syndrome (m±S.E.),"[7]; 3hr, 160 mg/Kg p.o.",21.8 ± 4.0
same,% of Protection,[7]; [12],29%
same,No. of Writhing Syndrome (m±S.E.),"[7]; 3hr, 320 mg/Kg p.o.",3.8 ± 2.7
same,% of Protection,"[7]; 3hr, 320 mg/Kg p.o., ** P<0.01",88%
"Nc1cc[n+](CC(=O)c2ccccc2)cn1 [Compound C, 4-amino-pyrimidine-N^1-phenacylbromide]",Inhibitory % (ulcer index),[1]; 150 mg/Kg p.o.,23.4%
same,Ulcer Index (mm),[1]; 150 mg/Kg p.o.,53.1 ± 5.8 mm
same,effect on stress ulcer in words,[1],effective
same,Inhibitory % (ulcer index),[1]; 300 mg/Kg p.o.,66.2%
same,Ulcer Index (mm),[1]; [9],23 ± 6.3 mm
same,inhibitory effect to Maximum Response,[8],about 35%
same,Inhibitory % (titrable acidity),[2]; [10],69.7%
same,Inhibitory % (volume),[2]; [10],53.5%
same,Titrable acidity to PH 7.0,[2]; [10],57.0 ± 22.4 μEq/100g B.W.
same,Vol/100 g B.W.(ml),[2]; [10],0.94 ± 0.20 ml/100 g B.W.
same,Inhibitory % (titrable acidity),[2]; [11],88.2%
same,Inhibitory % (volume),[2]; [11],69.3%
same,Titrable acidity to PH 7.0,[2]; [11],22.2 ± 7.6 μEq/100g B.W.
same,Vol/100 g B.W.(ml),[2]; [11],0.62 ± 0.08 ml/100 g B.W.
same,Inhibitory % (ulcer index),[3],64.8%
same,Ulcer Index (mm),[3],19 ± 7 mm
same,Inhibitory % (titrable acidity),[3],-19.3%
same,Inhibitory % (volume),[3],34.5%
same,Titrable Acidity to pH 7.0,[3],414.8 ± 83.0 μ Eq/100g B.W.
same,Vol(ml) 100g B.W.,[3],3.14 ± 0.43 ml/100g B.W.
same,inhibitory effect against the appearance of ulcer in words,[3],outstanding inhibitory effects
same,pH of the test compound,[4],5.8
same,% of Protection,"[7]; 1hr, 20 mg/Kg p.o.",8%
same,No. of Writhing Syndrome (m±S.E.),"[7]; 1hr, 20 mg/Kg p.o.",36.9 ± 3.6
same,% of Protection,"[7]; 1hr, 40 mg/Kg p.o.",13%
same,No. of Writhing Syndrome (m±S.E.),"[7]; 1hr, 40 mg/Kg p.o.",34.9 ± 7.3
same,% of Protection,"[7]; 1hr, 80 mg/Kg p.o.",-12%
same,No. of Writhing Syndrome (m±S.E.),"[7]; 1hr, 80 mg/Kg p.o.",45.3 ± 1.7
same,No. of Writhing Syndrome (m±S.E.),"[7]; 1hr, 160 mg/Kg p.o.",29.9 ± 5.1
same,% of Protection,"[7]; 1hr, 160 mg/Kg p.o., * P<0.05",26%
same,No. of Writhing Syndrome (m±S.E.),"[7]; 1hr, 320 mg/Kg p.o.",15.9 ± 5.5
same,% of Protection,"[7]; 1hr, 320 mg/Kg p.o., ** P<0.01",61%
same,% of Protection,"[7]; 3hr, 20 mg/Kg p.o.",-35%
same,No. of Writhing Syndrome (m±S.E.),"[7]; 3hr, 20 mg/Kg p.o.",41.4 ± 5.0
same,% of Protection,"[7]; 3hr, 40 mg/Kg p.o.",27%
same,No. of Writhing Syndrome (m±S.E.),"[7]; 3hr, 40 mg/Kg p.o.",22.3 ± 5.3
same,% of Protection,"[7]; 3hr, 80 mg/Kg p.o.",-19%
same,No. of Writhing Syndrome (m±S.E.),"[7]; 3hr, 80 mg/Kg p.o.",36.4 ± 3.8
same,No. of Writhing Syndrome (m±S.E.),"[7]; 3hr, 160 mg/Kg p.o.",11.0 ± 3.3
same,% of Protection,[7]; [12],64%
same,No. of Writhing Syndrome (m±S.E.),"[7]; 3hr, 320 mg/Kg p.o.",12.9 ± 4.6
same,% of Protection,"[7]; 3hr, 320 mg/Kg p.o., ** P<0.01",58%
